Source: patent US20250326814A1, “MODIFIED OXYNTOMODULIN AND METHODS OF USE THEREOF” (OPKO BIOLOGICS LTD., priority 2024, published 2025)
Non-standard residues stand in square brackets, D forms with d. Residues, ends and D or L forms follow the SMILES beside them. No end group written: not given here. *: point of attachment. X3 = O=C(O)CCCCCCCCCCCCCCCCCCC(=O)N[C@@H](CCC(=O)N[C@@H](CCC(=O)O)C(=O)NCCOCCOCC(=O)NCCOCCOCC(=O)NCCOCCOCC(=O)N[C@@H](CCCCNC(=O)C*)C(=O)NCC(=O)O)C(=O)O; X4 = O=C(O)CCCCCCCCCCCCCCCCC(=O)N[C@@H](CCC(=O)NCCOCCOCC(=O)NCCOCCOCC(=O)N[C@@H](CCCCNC(=O)C*)C(=O)NCC(=O)O)C(=O)O; Aib = CC(C)(N)C(=O)O

Legend:
Assay type in all cases: cell-based
[1] = molecular target: T1, glucagon-like peptide-1 (GLP1) receptor (Homo sapiens, UniProt P43220); experiment: GLP-1 activity EC50 of OXM analogs and GLP-1 therapeutics (Example 4, Table 9); conditions: GLP-1 activity; Table 9; read-out: EC50
T1 construct: expressed in transfected cells; host or cells: CHO-K1
Text: The potencies of the modified OXM analogs newly disclosed in the present application, the OXM Analog alone, and the PEGylated OXM analog were examined and compared by measuring the EC50 of both receptors, glucagon-like peptide-1 (GLP1) and glucagon (GCGR).

GCGR = GCGR (Homo sapiens, UniProt P47871); experiment: CBA potency assay, GCGR (Tables 10 and 11)
Text: (§1) The impact of the longevity-enabling molecule (PEG Vs. FA-peptide/binder complex) on the peptide potency was studied.

GLP1 = GLP1 (Homo sapiens, UniProt P43220); experiment: CBA potency assay, GLP1 (Tables 10 and 11)
Chain of GLP1 (P43220 24-463): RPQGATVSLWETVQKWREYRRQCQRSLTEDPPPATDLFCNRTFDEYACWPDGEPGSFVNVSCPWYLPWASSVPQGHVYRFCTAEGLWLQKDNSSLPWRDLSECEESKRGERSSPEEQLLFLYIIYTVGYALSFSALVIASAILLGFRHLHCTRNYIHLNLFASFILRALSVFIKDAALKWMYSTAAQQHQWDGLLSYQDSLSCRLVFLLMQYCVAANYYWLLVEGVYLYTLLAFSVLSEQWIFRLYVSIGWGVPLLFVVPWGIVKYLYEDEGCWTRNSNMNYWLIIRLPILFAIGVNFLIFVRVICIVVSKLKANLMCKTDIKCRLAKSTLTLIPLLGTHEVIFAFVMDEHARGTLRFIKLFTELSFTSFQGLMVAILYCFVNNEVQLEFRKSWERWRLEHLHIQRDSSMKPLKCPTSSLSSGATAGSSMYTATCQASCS
Text: as §1

T1 sequence (P43220 24-463): as above
Chain of GCGR (P47871 26-477): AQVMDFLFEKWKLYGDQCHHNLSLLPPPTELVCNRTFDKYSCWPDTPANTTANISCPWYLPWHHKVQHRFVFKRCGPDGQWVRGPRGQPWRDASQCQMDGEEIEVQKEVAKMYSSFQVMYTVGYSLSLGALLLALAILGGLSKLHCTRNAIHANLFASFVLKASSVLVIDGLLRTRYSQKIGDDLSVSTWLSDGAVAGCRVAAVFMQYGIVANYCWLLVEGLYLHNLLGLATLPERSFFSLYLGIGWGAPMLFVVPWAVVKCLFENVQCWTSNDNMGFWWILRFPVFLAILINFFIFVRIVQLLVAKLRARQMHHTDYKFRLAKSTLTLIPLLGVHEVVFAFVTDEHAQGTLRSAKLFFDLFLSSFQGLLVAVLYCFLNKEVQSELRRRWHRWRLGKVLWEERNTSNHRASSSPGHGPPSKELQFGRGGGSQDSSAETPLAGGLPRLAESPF

CC[C@H](C)[C@H](NC(=O)[C@H](CC(N)=O)NC(=O)[C@H](CC(N)=O)NC(=O)[C@H](CCCNC(=N)N)NC(=O)[C@H](CC(N)=O)NC(=O)[C@H](CCCNC(=N)N)NC(=O)CNC(=O)C(C)(C)NC(=O)[C@H](CC(N)=O)NC(=O)[C@H](CC(C)C)NC(=O)[C@H](CC(C)C)NC(=O)[C@H](Cc1c[nH]c2ccccc12)NC(=O)[C@H](CCC(N)=O)NC(=O)[C@@H](NC(=O)[C@H](Cc1ccccc1)NC(=O)[C@H](CCC(=O)O)NC(=O)[C@H](CCC(N)=O)NC(=O)[C@H](C)NC(=O)[C@H](CCCCN)NC(=O)[C@H](CCCCN)NC(=O)[C@H](CO)NC(=O)[C@H](CC(=O)O)NC(=O)[C@H](CC(C)C)NC(=O)[C@H](Cc1ccc(O)cc1)NC(=O)[C@H](CCCCN)NC(=O)[C@H](CO)NC(=O)[C@H](Cc1ccc(O)cc1)NC(=O)[C@H](CC(=O)O)NC(=O)[C@H](CO)NC(=O)[C@@H](NC(=O)[C@H](Cc1ccccc1)NC(=O)[C@@H](NC(=O)CNC(=O)[C@H](CCC(N)=O)NC(=O)C(C)(C)NC(=O)[C@@H](N)Cc1c[nH]cn1)[C@@H](C)O)[C@@H](C)O)C(C)C)C(=O)N[C@@H](C)C(=O)N[C@@H](CSCC(=O)NCCCC[C@H](NC(=O)COCCOCCNC(=O)COCCOCCNC(=O)COCCOCCNC(=O)[C@H](CCC(=O)O)NC(=O)CC[C@H](NC(=O)CCCCCCCCCCCCCCCCCCC(=O)O)C(=O)O)C(=O)NCC(=O)O)C(N)=O [Variant 3] (H-H[Aib]QGTFTSDYSKYLDSKKAQEFVQWLLN[Aib]GRNRNNIAC(X3)-NH2)
EC50 [1]: 0.15 nM

CC[C@H](C)[C@H](NC(=O)[C@H](CC(N)=O)NC(=O)[C@H](CC(N)=O)NC(=O)[C@H](CCCNC(=N)N)NC(=O)[C@H](CC(N)=O)NC(=O)[C@H](CCCNC(=N)N)NC(=O)CNC(=O)C(C)(C)NC(=O)[C@H](CC(N)=O)NC(=O)[C@H](CC(C)C)NC(=O)[C@H](CC(C)C)NC(=O)[C@H](Cc1c[nH]c2ccccc12)NC(=O)[C@H](CCC(N)=O)NC(=O)[C@@H](NC(=O)[C@H](Cc1ccccc1)NC(=O)[C@H](CCC(=O)O)NC(=O)[C@H](CCC(N)=O)NC(=O)[C@H](C)NC(=O)[C@H](CCCCN)NC(=O)[C@H](CCCCN)NC(=O)[C@H](CO)NC(=O)[C@H](CC(=O)O)NC(=O)[C@H](CC(C)C)NC(=O)[C@H](Cc1ccc(O)cc1)NC(=O)[C@H](CCCCN)NC(=O)[C@H](CO)NC(=O)[C@H](Cc1ccc(O)cc1)NC(=O)[C@H](CC(=O)O)NC(=O)[C@H](CO)NC(=O)[C@@H](NC(=O)[C@H](Cc1ccccc1)NC(=O)[C@@H](NC(=O)CNC(=O)[C@H](CCC(N)=O)NC(=O)C(C)(C)NC(=O)[C@@H](N)Cc1c[nH]cn1)[C@@H](C)O)[C@@H](C)O)C(C)C)C(=O)N[C@@H](C)C(=O)N[C@@H](CSCC(=O)NCCCC[C@H](NC(=O)COCCOCCNC(=O)COCCOCCNC(=O)CC[C@H](NC(=O)CCCCCCCCCCCCCCCCC(=O)O)C(=O)O)C(=O)NCC(=O)O)C(N)=O [Variant 2] (H-H[Aib]QGTFTSDYSKYLDSKKAQEFVQWLLN[Aib]GRNRNNIAC(X4)-NH2)
EC50 [1]: 0.1 nM

CC[C@H](C)[C@H](NC(=O)[C@H](CC(N)=O)NC(=O)[C@H](CC(N)=O)NC(=O)[C@H](CCCNC(=N)N)NC(=O)[C@H](CC(N)=O)NC(=O)[C@H](CCCNC(=N)N)NC(=O)CNC(=O)C(C)(C)NC(=O)[C@H](CC(N)=O)NC(=O)[C@H](CC(C)C)NC(=O)[C@H](CC(C)C)NC(=O)[C@H](Cc1c[nH]c2ccccc12)NC(=O)[C@H](CCC(N)=O)NC(=O)[C@@H](NC(=O)[C@H](Cc1ccccc1)NC(=O)[C@H](CCC(=O)O)NC(=O)[C@H](CCC(N)=O)NC(=O)[C@H](C)NC(=O)[C@H](CCCCN)NC(=O)[C@H](CCCCN)NC(=O)[C@H](CO)NC(=O)[C@H](CC(=O)O)NC(=O)[C@H](CC(C)C)NC(=O)[C@H](Cc1ccc(O)cc1)NC(=O)[C@H](CCCCN)NC(=O)[C@H](CO)NC(=O)[C@H](Cc1ccc(O)cc1)NC(=O)[C@H](CC(=O)O)NC(=O)[C@H](CO)NC(=O)[C@@H](NC(=O)[C@H](Cc1ccccc1)NC(=O)[C@@H](NC(=O)CNC(=O)[C@H](CCC(N)=O)NC(=O)C(C)(C)NC(=O)[C@@H](N)Cc1c[nH]cn1)[C@@H](C)O)[C@@H](C)O)C(C)C)C(=O)N[C@@H](C)C(=O)N[C@@H](CS)C(N)=O [MOD-604 KPI] (HELM PEPTIDE1{H.[Aib].Q.G.T.F.T.S.D.Y.S.K.Y.L.D.S.K.K.A.Q.E.F.V.Q.W.L.L.N.[Aib].G.R.N.R.N.N.I.A.C.[am]}$$$$V2.0)
EC50 [1]: 0.13 nM | % EC50 compare to KPI (GCGR) (GCGR; Table 10): 72% | Activity fold reduction compared to OPK-88003 KPI (GCGR) (GCGR; Table 10): 1.4 fold | EC50 (GCGR; Table 10): 0.83 nM | EC50 ratio (GCGR\GLP-1R) (GCGR; Table 10): 2.9 | % EC50 compare to KPI (GLP1) (GLP1; Table 10): 45% | Activity fold reduction compared to OPK-88003 KPI (GLP1) (GLP1; Table 10): 2.2 fold | EC50 (GLP1; Table 10): 0.282 nM

OPK-88003 FA-conjugate: either the modified OXM of Formula XXII or the modified OXM of Formula XXIII (H[Aib]QGTFTSDYSKYLDSKKAQEFVQWLLN[Aib]GRNRNNIACC; not fully specified (C-terminus); also: fatty acid binder on Cys38 or Cys39, isomer not given here)
EC50 ratio (GCGR\GLP-1R) (GCGR; Table 10): 7.6 | EC50 ratio (GCGR\GLP-1R) (GCGR; Table 11, + HSA): 23.3 | EC50 ratio (GCGR\GLP-1R) (GCGR; Table 11, without HSA): 15.2 | Activity fold reduction compared to OPK-88003 KPI (GLP1) (GLP1; Table 11, without HSA): non
